Assay results: publication PMC5427475, “Effect of clopidogrel on the hydroxylation and sulfoxidation of omeprazole: A single dose study in healthy human volunteers” (EXCLI Journal, 2017)
Like-named read-outs stand apart in the source and are kept apart here.

Columns and labels:
[1] = Single-dose crossover pharmacokinetic study of omeprazole (40 mg) alone or with clopidogrel (150 mg) in healthy volunteers (CYP2C19 EM and PM), plasma LC-MS; format: in vivo, human; conditions: for AUC0-∞, % increase / Cmax, % increase / E Half-life, % increase / Tmax, % increase / Cl, % increase: OMP+CLOP vs OMP alone; for half-life: read-out: E Half-life (converted)
Procedure: A group of twelve healthy volunteers were recruited for this study (divided into two groups), and written informed consent was obtained from all participants included in the study. […] Electrocardiogram, routine lab tests including hematological, kidney and liver function tests were performed for all the volunteers. They were physically examined and their medical history was also evaluated. All volunteers were non-smokers and abstained from taking any other medicine and juices in the week prior to the study. Volunteers were served standard breakfast and lunch during the study. […] This study was conducted in accordance to “World Medical Association (WMA) declaration of Helsinki-Ethical principles for medical research involving human subjects” and its amendments. The study was approved by the ethical committee, Department of Pharmacy, University of […], Pakistan. (Application number13/EC/Pharm. Ref number 12/Pharm). It was a single dose, 2-period, 2-sequence study with 14 days washout period. […] Approximately 3 mL of blood was collected from each volunteer at 0, 0.5, 1, 2, 3, 4, 6, and 8 hr after dose administration in heparinized tubes. After centrifugation, the plasma was transferred into properly labeled eppendroff tubes and stored at a temperature of -20 °C until analysis. OMP and its metabolites were extracted from the plasma using precipitation method and were analyzed using LCMS method. The mobile phase consisted of 0.1 % formic acid in acetonitrile: 0.1 % formic acid in water (40/60 v/v) using Hichrom RP18 (150 × 3.0 mm, 3 μm UK) as a stationary phase interfaced with a LTQ Orbit rap mass spectrometer. Pantoprazole was used as an internal standard (Ahmad et al., 2015[1]). Various PK parameters were calculated using the PK Solutions software. […] The AUC0-∞ was determined by trapezoidal rule. The elimination half life was determined by using first-order equation, i.e., The apparent oral clearance (CL/F) was determined by using equation, Dose/AUC0-∞. The pharmacokinetic data was interpreted statistically using SPSS software (version 16.0; SPSS, Inc, Chicago, IL). […] P < 0.05 was considered statistically significant.

[2] = ref McEwen et al., 1999; cited from earlier work
[3] = extensive metabolizers, OMP 40 mg + CLOP 150 mg
[4] = extensive metabolizers, OMP 40 mg alone
[5] = poor metabolizers, OMP 40 mg + CLOP 150 mg
[6] = poor metabolizers, OMP 40 mg alone
[7] = human, plasma, oral, 40 mg, extensive metabolizers, OMP 40 mg alone
[8] = human, plasma, oral, 40 mg, extensive metabolizers, OMP 40 mg alone, read-out: Tmax
[9] = human, plasma, oral, 40 mg, poor metabolizers, OMP 40 mg alone
[10] = human, plasma, oral, 40 mg, poor metabolizers, OMP 40 mg alone, read-out: Tmax
[11] = human, plasma, oral, extensive metabolizers (n = 8), OMP 40 mg + CLOP 150 mg, single dose, plasma, read-out: Cmax
[12] = human, plasma, oral, extensive metabolizers, OMP 40 mg + CLOP 150 mg
[13] = human, plasma, oral, extensive metabolizers, OMP 40 mg + CLOP 150 mg, read-out: Tmax
[14] = human, plasma, oral, poor metabolizers (n = 4), OMP 40 mg + CLOP 150 mg, single dose, plasma, read-out: Cmax
[15] = human, plasma, oral, poor metabolizers, OMP 40 mg + CLOP 150 mg
[16] = human, plasma, oral, poor metabolizers, OMP 40 mg + CLOP 150 mg, read-out: Tmax
[17] = human, plasma, po, 40 mg, extensive metabolizers (n = 8), OMP 40 mg alone, single oral dose, plasma, read-out: Cmax
[18] = human, plasma, po, 40 mg, poor metabolizers (n = 4), OMP 40 mg alone, single oral dose, plasma, read-out: Cmax

| Structure (SMILES) | AUC0-∞, % increase ([1]; extensive metabolizers) | Cmax, % increase ([1]; extensive metabolizers) | E Half-life, % increase ([1]; extensive metabolizers) | Tmax, % increase ([1]; extensive metabolizers) | AUC0-∞, % increase ([1]; poor metabolizers) | Cmax, % increase ([1]; poor metabolizers) | Tmax, % increase ([1]; poor metabolizers) | AUC(0-inf) [1, 7] [µg·h/mL] | half-life [1, 7] [h] | Tmax [1, 8] [h] | AUC(0-inf) [1, 9] [µg·h/mL] | half-life [1, 9] [h] | Tmax [1, 10] [h] | Cmax [1, 11] [µg/mL] | AUC(0-inf) [1, 12] [µg·h/mL] | half-life [1, 12] [h] | Tmax [1, 13] [h] | Cmax [1, 14] [µg/mL] | AUC(0-inf) [1, 15] [µg·h/mL] | half-life [1, 15] [h] | other results |
| --- | --- | --- | --- | --- | --- | --- | --- | --- | --- | --- | --- | --- | --- | --- | --- | --- | --- | --- | --- | --- | --- |
| COc1ccc2nc([S+]([O-])Cc3ncc(CO)c(OC)c3C)[nH]c2c1 (centres unmarked) [5-OH-OMP, 5-hydroxyomeprazole] | -14.22% ± 2.80 | -16.23% ± 5.8 | -8.30% ± 6.1 | -8.23 ± 4.3% | -1.73% ± 2.38 | -4.9% ± 3.61 | 5.20% ± 4.0 | – | – | – | – | – | – | – | – | – | – | – | – | – | Cmax ([1]; extensive metabolizers (n = 8), OMP 40 mg + CLOP 150 mg, single dose, plasma): 0.401 ± 0.035 µg/mL; Cmax ([1]; extensive metabolizers (n = 8), OMP 40 mg alone, single oral dose, plasma): 0.562 ± 0.053 µg/mL; AUC0-∞ [1, 3]: 1.615 ± 0.401 µg·h/mL; E Half-life [1, 3]: 1.097 ± 0.106 h; Tmax [1, 3]: 2.49 ± 0.281 h; AUC0-∞ [1, 4]: 2.203 ± 0.619 µg·h/mL; E Half-life [1, 4]: 1.24 ± 0.129 h; Tmax [1, 4]: 2.723 ± 0.394 h; Cmax ([1]; poor metabolizers (n = 4), OMP 40 mg + CLOP 150 mg, single dose, plasma): 0.373 ± 0.032 µg/mL; Cmax ([1]; poor metabolizers (n = 4), OMP 40 mg alone, single oral dose, plasma): 0.407 ± 0.046 µg/mL; AUC0-∞ [1, 5]: 1.566 ± 0.09 µg·h/mL; E Half-life [1, 5]: 2.828 ± 0.188 h; Tmax [1, 5]: 3.138 ± 0.251 h; AUC0-∞ [1, 6]: 1.607 ± 0.126 µg·h/mL; E Half-life [1, 6]: 2.588 ± 0.111 h; Tmax [1, 6]: 2.988 ± 0.311 h |
| COC(=O)[C@H](c1ccccc1Cl)N1CCc2sccc2C1 [CLOP, clopidogrel] | – | – | – | – | – | – | – | – | – | – | – | – | – | – | – | – | – | – | – | – | oral bioavailability [2]: less than 50% |
| COc1ccc2[nH]c([S+]([O-])Cc3ncc(C)c(OC)c3C)nc2c1 (centres unmarked) [OMP, omeprazole] | 9.33% ± 5.13 | – | 6.31% ± 4.31 | 0.043% ± 0.0204 | 4.11% ± 1.68 | 5.46% ± 2.08 | -0.78% ± 0.32 | 4.04 ± 0.282 | 1.05 ± 0.187 | 2.8 ± 0.178 | 8.82 ± 0.778 | 1.58 ± 0.058 | 2.99 ± 0.411 | 1.09 ± 0.146 | 4.9 ± 0.62 | 1.13 ± 0.185 | 2.9 ± 0.228 | 1.63 ± 0.116 | 9.07 ± 0.861 | 1.51 ± 0.049 | drug metabolite ratio [AUC]OMP/5-OH-OMP ([1]; EM): 1.94 ±0.602; drug metabolite ratio [AUC]OMP/OMP-S ([1]; EM): 13.64 ± 2.711; drug metabolite ratio [AUC]OMP/5-OH-OMP ([1]; PM): 9.84 ± 4.543; drug metabolite ratio [AUC]OMP/OMP-S ([1]; PM): 9.85 ± 4.98; Cl (apparent oral clearance, Dose/AUC0-∞) [1, 3]: 0.116667 ± 0.02136 L/h/kg; Cl (apparent oral clearance, Dose/AUC0-∞) [1, 4]: 0.137833 ± 0.023395 L/h/kg; Cl, % increase ([1]; extensive metabolizers): -15.42% ± 4.92; Tmax [1, 16]: 2.98 ± 0.414 h; Cmax [1, 17]: 0.89 ± 0.083 µg/mL; Cmax [1, 18]: 1.41 ± 0.146 µg/mL; Cl (apparent oral clearance, Dose/AUC0-∞) [1, 5]: 0.052947 ± 0.00751 L/h/kg; Cl (apparent oral clearance, Dose/AUC0-∞) [1, 6]: 0.058641 ± 0.00866 L/h/kg; Cl, % increase ([1]; poor metabolizers): -9.6% ± 1.72; E Half-life, % increase ([1]; poor metabolizers): -4.73% ± 3.06 |
| COc1ccc2nc(S(=O)(=O)Cc3ncc(C)c(OC)c3C)[nH]c2c1 [OMP-S, omeprazole sulfone] | 5.01% ± 1.57 | 8.01% ± 2.0 | 3.81% ± 1.70 | -2.5% ± 1.18 | 2.32% ± 2.9 | – | -3.28% ± 0.60 | 0.535 ± 0.058 | 2.37 ± 0.472 | 2.72 ± 0.278 | 1.5 ± 0.118 | 3.34 ± 0.438 | 3.06 ± 0.17 | 0.198 ± 0.026 | 0.612 ± 0.07 | 2.48 ± 0.496 | 2.65 ± 0.255 | 0.431 ± 0.056 | 1.52 ± 0.102 | 3.14 ± 0.44 | Tmax [1, 16]: 3 ± 0.077 h; Cmax [1, 17]: 0.175 ± 0.024 µg/mL; Cmax [1, 18]: 0.444 ± 0.053 µg/mL; E Half-life, % increase ([1]; poor metabolizers): -6.08% ± 0.96 |
